In patent US20250057928A1, “VACCINE COMPOSITION FOR INDUCING ANTI-IL-23 ANTIBODY” (OSAKA UNIVERSITY, priority 2021, published 2025):
Where no end group is shown, it is not given here.

How the values were obtained:
epitope peptide = assay: Antibody titer (GMT) of serum of mice administered AJP001 conjugated peptide, ELISA; type: in vivo, mouse; settings: BALB/c mice, 0.5 mg/body intradermal with equal amount of 2% Alhydrogel, 3 times at two-week intervals; serum 6 weeks after initial administration; titer to each epitope sequence
Experimental: AJP001 conjugated peptide having one of the B cell epitope sequences of SEQ ID NOs: 1-5 was dissolved in physiological saline and intradermally administered twice to BALB/c mice (female, 6-week-old, N=5-6) at 0.5 mg/body at 2-week intervals. Blood was collected before administration and 5 weeks after the initial administration, and the antibody titer against each AJP001 conjugated peptide and the binding ability to recombinant mouse IL-23 protein (rmIL-23) were measured by the ELISA method. Specifically, a 96-well plate immobilized with an epitope peptide dissolved at 10 μg/mL in carbonate buffer was blocked with 5% skim milk/PBS, and then serum serially diluted with 5% skim milk/PBS was added, and the mixture was left standing at 4° C. overnight. After washing the wells with PBS-T, HRP-labeled anti-mouse IgG antibody (GE Healthcare) diluted with 5% skim milk/PBS was added and the mixture was shaken at room temperature for 3 hr. After washing the wells with PBS-T, TMB solution (SIGMA) was added, the wells were allowed to stand for 30 min in the dark, the reaction was stopped by adding 0.5M H2SO4, and the absorbance at 450 nm was measured using a plate reader. The serum dilution rate that gave 1/2 (OD=1.75) of the maximum absorbance was defined as the antibody titer, and the geometric mean titer: GMT was calculated from the individual values. Binding to IL-23 protein was measured by the ELISA method in the same manner as the antibody titer, using rmIL-23 (Antibodies-online GmbH) as the solid-phased antigen and goat serum for blocking.
AJP001 conjugated peptide (SEQ ID NO: 2) was dissolved in physiological saline and intradermally administered to BALB/c mice (female, 6-week-old, N=6) at 1 mg/body 3 times at two-week intervals, and blood was collected every 2 weeks until 8 weeks. The antibody titer (GMT) of all the collected sera and the binding ability to rmIL-23 of the serum at the time point of 6 weeks were measured by the ELISA method (same method as in Example 1). The antibody titer and the binding of the induced antibody to rmIL-23 at each time point are shown in FIGS. 2 (a) and (b), respectively.
AJP001 conjugated peptide (SEQ ID NOs: 6-37) was dissolved in physiological saline, mixed with an equal amount of 2% Alhydrogel (invivogen), and this was intradermally administered to BALB/c mice (female, 6-week-old, N=5-6) at 0.5 mg/body 3 times at two-week intervals. Blood was collected before administration and at the time point of 6 weeks after initial administration, and the antibody titer (GMT) to each epitope sequence and binding ability to recombinant human IL-23 protein (rhIL-23) (Peprotech) were measured by the ELISA method (same method as in Example 1). The binding to rhIL-23 was evaluated by a binding ratio to normal serum by calculating the ratio of the absorbance of a well added with normal mouse serum to the absorbance of a well added with antiserum derived from a mouse administered with each AJP001 conjugated peptide (SEQ ID NOs: 6-37). In addition, the neutralization activity of mouse antiserum was evaluated using an action on IL-17 production in rhIL-23 stimulated mouse splenocyte as an index. The spleen of normal BALB/c mouse (female, 5-week-old, N=3) was triturated using a syringe barrel and a cell strainer and washed with and suspended in HBSS (−). Erythrocytes were then removed using ACK Buffer (Thermo fisher scientific), and splenocytes were isolated. The splenocytes were prepared to 2.5×10^6 cells/mL with 10% FBS/1% penicillin/streptomycin/4 ng/mL rmIL-2-containing RPMI1640 medium (culture medium), and seeded in a 96 well plate at 100 μl/well. The antiserum (final concentration 15-fold) of the mice administered with each AJP001 conjugated peptide and rhIL-23 (final concentration 10 ng/ml) were added to the culture medium, reacted at 37° C. for 2 hr, added at 100 μL/well to a 96-well plate seeded with splenocytes, and cultured for 3 days in a 37° C./5% CO2 incubator. […]

[1] = system: recombinant human IL-23 protein (rhIL-23); assay: Binding of mouse antiserum to rhIL-23, ELISA; settings: rhIL-23 ELISA; antiserum of BALB/c mice 6 weeks after initial administration, 0.5 mg/body with Alhydrogel
Experimental: (§1) AJP001 conjugated peptide (SEQ ID NOs: 6-37) was dissolved in physiological saline, mixed with an equal amount of 2% Alhydrogel (invivogen), and this was intradermally administered to BALB/c mice (female, 6-week-old, N=5-6) at 0.5 mg/body 3 times at two-week intervals. Blood was collected before administration and at the time point of 6 weeks after initial administration, and the antibody titer (GMT) to each epitope sequence and binding ability to recombinant human IL-23 protein (rhIL-23) (Peprotech) were measured by the ELISA method (same method as in Example 1). The binding to rhIL-23 was evaluated by a binding ratio to normal serum by calculating the ratio of the absorbance of a well added with normal mouse serum to the absorbance of a well added with antiserum derived from a mouse administered with each AJP001 conjugated peptide (SEQ ID NOs: 6-37). In addition, the neutralization activity of mouse antiserum was evaluated using an action on IL-17 production in rhIL-23 stimulated mouse splenocyte as an index. The spleen of normal BALB/c mouse (female, 5-week-old, N=3) was triturated using a syringe barrel and a cell strainer and washed with and suspended in HBSS (−). Erythrocytes were then removed using ACK Buffer (Thermo fisher scientific), and splenocytes were isolated. The splenocytes were prepared to 2.5×10^6 cells/mL with 10% FBS/1% penicillin/streptomycin/4 ng/mL rmIL-2-containing RPMI1640 medium (culture medium), and seeded in a 96 well plate at 100 μl/well. The antiserum (final concentration 15-fold) of the mice administered with each AJP001 conjugated peptide and rhIL-23 (final concentration 10 ng/ml) were added to the culture medium, reacted at 37° C. for 2 hr, added at 100 μL/well to a 96-well plate seeded with splenocytes, and cultured for 3 days in a 37° C./5% CO2 incubator. An untreated well and a control well to which normal mouse serum and rhIL-23 were added were provided. IL-17A/F in the culture supernatant was measured using Mouse IL-17A/F ELISA kit (R&D systems), the proportion (%) of IL-17 to normal serum was calculated from the IL-17 concentrations of untreated well (A), control well (B), and well (C) to which antiserum of the mice administered with each AJP001 conjugated peptide was added and according to the following formula, and the neutralization activity was evaluated.
AJP001 conjugated peptide (SEQ ID NO: 6) was dissolved in physiological saline and intradermally administered to BALB/c mice (female, 6-week-old, N=6) at 1 mg/body 3 times at two-week intervals, and blood was collected every 2 weeks until 8 weeks. The antibody titer (GMT) of all the collected sera and the binding ability to rhIL-23 of the serum at 6 weeks were measured by the ELISA method. In FIG. 5, “*” means P<0.05.

[2] = system: IL-17 production in rhIL-23 stimulated mouse splenocyte; assay: Neutralization activity of mouse antiserum: IL-17 production in rhIL-23 stimulated mouse splenocyte; type: cell-based; settings: antiserum final 15-fold, rhIL-23 10 ng/ml, 3 days culture; IL-17A/F ELISA
Experimental: as §1
Percentage of IL-17 to normal serum (%)=100×(C−A/B−A)

p19 subunit = molecular target: T1, p19 subunit (Homo sapiens, UniProt Q9NPF7); settings: compared with Ustekinumab; cited from earlier work
T1 sequence (Q9NPF7 20-189): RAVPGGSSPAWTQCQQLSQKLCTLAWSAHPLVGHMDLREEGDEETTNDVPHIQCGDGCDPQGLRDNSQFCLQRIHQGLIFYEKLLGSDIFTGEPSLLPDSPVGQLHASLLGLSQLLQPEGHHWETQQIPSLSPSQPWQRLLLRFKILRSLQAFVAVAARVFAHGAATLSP
T1 sequence (P29460 23-328 partner): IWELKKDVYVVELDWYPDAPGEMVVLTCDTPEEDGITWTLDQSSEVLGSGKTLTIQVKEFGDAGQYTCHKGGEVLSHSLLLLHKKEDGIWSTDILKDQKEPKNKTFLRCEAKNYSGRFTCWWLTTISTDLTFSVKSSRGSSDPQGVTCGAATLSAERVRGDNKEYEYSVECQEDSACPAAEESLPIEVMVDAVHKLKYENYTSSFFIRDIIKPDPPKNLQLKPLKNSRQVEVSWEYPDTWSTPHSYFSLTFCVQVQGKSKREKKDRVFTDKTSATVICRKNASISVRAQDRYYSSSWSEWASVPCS

Substance | binding to IL-23 (binding ratio to normal serum) [1] | antibody titer (GMT) (epitope peptide) | neutralization activity (percentage of IL-17 to normal serum (%)) [2] | PASI90 (almost complete disappearance of psoriasis lesion) rate (p19 subunit)
29 (SPKQPWQR; not fully specified (N-terminus)) [compound 29] | 1.11 | 9056 | 63.9% | 
30 (KKSQPWQR; not fully specified (N-terminus)) [compound 30] | 1.2 | 6917 | 68.9% | 
31 (PSQPWQR; not fully specified (N-terminus); listed as Homo sapiens) [compound 31] | 0.99 | 12417 | 63.4% | 
Risankizumab |  |  |  | about twice as high as that of Ustekinumab

The next lines start with results.

binding to IL-23 (binding ratio to normal serum) [1] | Substance | antibody titer (GMT) (epitope peptide) | neutralization activity (percentage of IL-17 to normal serum (%)) [2] | PASI90 (almost complete disappearance of psoriasis lesion) rate (p19 subunit)
1.03 | 32 (SQPWQR; not fully specified (N-terminus); listed as Homo sapiens) [compound 32] | 5567 | 61.3% | 
1.00 | 33 (QPWQR; not fully specified (N-terminus); listed as Homo sapiens) [compound 33] | 16458 | 72.6% | 
0.97 | 34 (PSQPWQRK; not fully specified (N-terminus); listed as Homo sapiens) [compound 34] | 362 | 32.5% | 
1.30 | 35 (SQPWQRK; not fully specified (N-terminus); listed as Homo sapiens) [compound 35] | 92 | 32.5% | 
1.10 | 36 (QPWQRSQPWQR; not fully specified (N-terminus)) [compound 36] | 8202 | 70.3% | 
1.05 | 37 (QPWQRGGGGSQPWQR; not fully specified (N-terminus)) [compound 37] | 6459 | 63.9% | 
